How the values were obtained:
[1] = cited from earlier work; for Degree of Sweetness: sucrose per unit concentration Brix 1 defined as 1
[2] = target: T1, sweet taste receptor (T1R2/T1R3) (Homo sapiens, UniProt Q7RTX0+Q8TE23); assay: Sensory evaluation of remaining sweetness intensity of sweet substances with lactisole, relative to sucrose + lactisole; details: 100 ppm lactisole; solution 15-1 (12 w/v % sucrose + 100 ppm lactisole) = 100%; n=4
T1 sequence (Q8TE23 20-839): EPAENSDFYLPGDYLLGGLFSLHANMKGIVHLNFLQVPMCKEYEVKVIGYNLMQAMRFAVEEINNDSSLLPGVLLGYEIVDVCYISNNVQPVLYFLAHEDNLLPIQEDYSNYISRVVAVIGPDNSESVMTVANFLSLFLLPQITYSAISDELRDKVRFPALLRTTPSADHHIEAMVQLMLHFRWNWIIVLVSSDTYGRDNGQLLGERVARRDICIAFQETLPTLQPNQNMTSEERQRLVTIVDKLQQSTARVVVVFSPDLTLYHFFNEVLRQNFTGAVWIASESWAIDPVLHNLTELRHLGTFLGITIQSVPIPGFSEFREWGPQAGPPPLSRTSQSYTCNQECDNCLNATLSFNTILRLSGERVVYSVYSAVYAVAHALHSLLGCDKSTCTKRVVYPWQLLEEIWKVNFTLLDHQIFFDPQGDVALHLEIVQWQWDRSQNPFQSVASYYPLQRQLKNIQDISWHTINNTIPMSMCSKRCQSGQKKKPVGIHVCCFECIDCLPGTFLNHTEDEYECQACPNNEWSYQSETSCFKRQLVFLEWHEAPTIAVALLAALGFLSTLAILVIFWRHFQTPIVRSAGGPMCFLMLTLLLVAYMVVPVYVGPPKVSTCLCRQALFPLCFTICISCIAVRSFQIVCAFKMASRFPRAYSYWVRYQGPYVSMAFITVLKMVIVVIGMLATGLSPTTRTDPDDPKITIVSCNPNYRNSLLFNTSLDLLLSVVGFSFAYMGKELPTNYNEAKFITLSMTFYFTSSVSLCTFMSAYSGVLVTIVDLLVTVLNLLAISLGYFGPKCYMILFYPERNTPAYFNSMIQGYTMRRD
T1 sequence (Q7RTX0 21-852): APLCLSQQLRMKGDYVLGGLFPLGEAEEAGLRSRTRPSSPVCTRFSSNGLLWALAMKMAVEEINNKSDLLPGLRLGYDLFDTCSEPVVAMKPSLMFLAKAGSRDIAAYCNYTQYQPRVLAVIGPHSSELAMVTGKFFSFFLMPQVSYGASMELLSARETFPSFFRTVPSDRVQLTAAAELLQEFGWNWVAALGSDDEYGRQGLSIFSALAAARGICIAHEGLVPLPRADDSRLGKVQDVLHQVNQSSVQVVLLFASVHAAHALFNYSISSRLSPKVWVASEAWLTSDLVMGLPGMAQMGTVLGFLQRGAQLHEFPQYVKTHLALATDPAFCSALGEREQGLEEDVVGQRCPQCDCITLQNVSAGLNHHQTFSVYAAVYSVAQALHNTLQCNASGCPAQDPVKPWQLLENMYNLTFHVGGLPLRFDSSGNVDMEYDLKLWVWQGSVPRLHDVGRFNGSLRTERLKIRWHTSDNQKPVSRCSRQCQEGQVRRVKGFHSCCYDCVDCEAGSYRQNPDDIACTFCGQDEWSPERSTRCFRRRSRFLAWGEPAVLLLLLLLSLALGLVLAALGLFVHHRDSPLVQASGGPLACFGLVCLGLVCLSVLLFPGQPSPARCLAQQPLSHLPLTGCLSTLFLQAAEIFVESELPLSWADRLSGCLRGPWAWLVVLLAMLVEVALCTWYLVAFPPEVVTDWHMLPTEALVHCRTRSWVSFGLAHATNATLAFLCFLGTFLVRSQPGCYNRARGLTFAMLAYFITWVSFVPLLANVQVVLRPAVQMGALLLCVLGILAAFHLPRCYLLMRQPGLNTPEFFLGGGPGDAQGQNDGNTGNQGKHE
From the text: The sweetness intensity of each sample solution was scored by using VAS scale. […] When the value was 50% or more, the substance was considered to be a sucrose-like substance, the taste of which is close to that of sucrose; and when the value was less than 50%, the substance was considered to be a substance, the taste of which is far from that of sucrose.
Each sweet substance was blended so as to have an approximately equal degree of sweetness of 12 w/v % sucrose (corresponding to about Brix 12) while the known degree of sweetness of each sweet substance was used for calculation. […] The sweetness intensity of each sample solution was scored by using VAS scale. […] When the value was 50% or more, the substance was considered to be a sucrose-like substance, the taste of which is close to that of sucrose; and when the value was less than 50%, the substance was considered to be a substance, the taste of which is far from that of sucrose.
D-tagatose was blended so as to have an approximately equal degree of sweetness of 12 w/v % sucrose (corresponding to about Brix 12) while the known degree of sweetness of D-tagatose was used for calculation. […] The sweetness intensity of each sample solution was scored by using VAS scale. […]

[3] = target: T1, sweet taste receptor (T1R2/T1R3); assay: Sensory evaluation (spit test, VAS scale) of sweetness intensity with lactisole, relative to lactisole-free solution; type: in vivo; design: The sweet taste receptor is expressed naturally on the cell surface of each taste cell; from tissue; host or cells: tongue (taste cells) of living human panelists; spit test; details: remaining sweetness with 100 ppm lactisole expressed as sucrose solution
Method: Sensory-trained persons (5 subjects) were panelists who conducted evaluation. […] Note that each sample solution was designed to have an approximately equal sweetness intensity while the sweetness intensity of sucralose was estimated to be 600 times the sweetness intensity of sucrose. […] A spit test was conducted for the sensory evaluation. […] Note that each energy (kcal/100 ml) was calculated while the energy of sucrose was set to 4 kcal/g and the energy of sucralose was set to 0 kcal/g.
The sweetness intensity of each sample was scored by using VAS scale. The sweetness intensity of each solution was calculated as a relative value (%) while the sweetness intensity of the 12 w/v % sucrose solution was set to 100%.

Compound | Degree of Sweetness [1] | Relative sweetness intensity (%) [2] [%] | sweetness intensity relative to the sweetness intensity of sucrose ([1]; estimate used to design sample solutions) [times] | sweetness level corresponding to sucrose solution [3] [w/v %]
O=C[C@H](O)[C@H](O)[C@H](O)[C@H](O)CO [Allose] | 0.8 |  |  | 
O=C(CO)[C@H](O)[C@H](O)[C@H](O)CO [D-allulose] | 0.7 |  |  | 
O=C(CO)[C@@H](O)[C@@H](O)[C@H](O)CO [D-tagatose] | 0.9 | ≥ 50 |  | 
OC[C@H]1O[C@H](O[C@H]2[C@H](O)[C@@H](O)[C@H](O)O[C@@H]2CO)[C@H](O)[C@@H](O)[C@@H]1O [Maltose] | 0.4 |  |  | 
OC[C@H]1O[C@H](O[C@]2(CCl)O[C@H](CCl)[C@@H](O)[C@@H]2O)[C@H](O)[C@@H](O)[C@H]1Cl [sucralose] |  |  | 600 | 0.144
OC[C@H]1O[C@@](CO)(O[C@H]2O[C@H](CO)[C@@H](O)[C@H](O)[C@H]2O)[C@@H](O)[C@@H]1O [sucrose] | 1 |  |  | 2.0

— patent publication US20210084950A1, “SWEETENING COMPOSITION INDUCING SWEETNESS RESPONSE THROUGH MOLECULE OTHER THAN SWEET TASTE RECEPTOR (T1R2/T1R3)” (SUNTORY HOLDINGS LIMITED, priority 2018, published 2021)
